Two compounds from EP4711361A1, “NITROGEN-CONTAINING HETEROCYCLIC COMPOUND AND USE THEREOF” (Jiangsu Deyuan Pharmaceutical Co.,Ltd., priority 2023, dated 2024) can be followed below.

Data set [1] can be described thus: in vitro. As to conditions: cynomolgus monkey, plasma.
A short description of data set [2]: in vitro. As to conditions: human, microsomes.
Data set [3] is described as follows: Permeability test (MDR1-MDCKII monolayer, bidirectional transport). Type of data set: in vitro ADME. The settings on record: dog; for efflux ratio at 2.5 h, 2 µM: MDCK-MDR1, pH 7.4, ER = Papp (BA)/ Papp (AB); for Papp A→B at 2.5 h, 2 µM: MDCK-MDR1, pH 7.4, pH 7.40, 2.5 hours, A to B, read-out: Apparent permeability coefficient (Papp (AB), 10^-6 cm/s). As for the experimental part:
Experimental objective: The permeability and efflux ratio of the compound of the present disclosure were determined using the MDR1-MDCKII monolayer cell model to assess its membrane permeability and potential for P-gp-mediated efflux transport.
Experimental protocol: MDR1-MDCKII cells (obtained from the Netherlands Cancer Institute) were seeded in 96-well plates (obtained from Corning) at a cell density of 3.33 × 10^5 cells/mL and cultured for 4 to 7 days to form confluent cell monolayers. Hank's balanced salt solution containing 10 mM HEPES (pH 7.40) was used as the transport buffer. The test compound was evaluated for bidirectional transport at a concentration of 2 µM, with the DMSO concentration in the incubation system maintained below 1%. After adding the samples, the cell plate was incubated at 37±1°C, 5% CO2, and saturated humidity for 2.5 hours. All samples were quantitatively analyzed using the LC-MS/MS method. The apparent permeability coefficient (Papp, cm/s) and efflux ratio (ER) were calculated using the following formula. Apparent permeability coefficient (Papp, cm/s) was calculated using the following formula: Papp = (dCr/dt) x Vr / (A x C0). Herein, dCr/dt represents the cumulative concentration of the compound at the receiving end per unit time (µM/s); Vr is the volume of the solution at the receiving end (with solution volumes at the apical and basolateral ends being 0.075 mL and 0.250 mL, respectively); A is the relative surface area of the cell monolayer (0.143 cm^2); C0 is the initial concentration of the test substance at the dosing end (µM) or the peak area ratio of the reference substance. The efflux ratio was calculated using the following formula: ER = Papp (BA)/ Papp (AB). Table 7: Permeability test results of compounds

Data set [4] is described as follows: in vitro. As to conditions: rat, plasma.
A short description of data set [5]: in vitro. As to conditions: human, plasma.
The target in the next data set is T1, human CYP11B2 (Homo sapiens, UniProt P19099).
T1 construct: expressed in transfected cells; host or cells: human renal leiomyoma G402 cells (monoclonal)
T1 sequence (P19099 25-503): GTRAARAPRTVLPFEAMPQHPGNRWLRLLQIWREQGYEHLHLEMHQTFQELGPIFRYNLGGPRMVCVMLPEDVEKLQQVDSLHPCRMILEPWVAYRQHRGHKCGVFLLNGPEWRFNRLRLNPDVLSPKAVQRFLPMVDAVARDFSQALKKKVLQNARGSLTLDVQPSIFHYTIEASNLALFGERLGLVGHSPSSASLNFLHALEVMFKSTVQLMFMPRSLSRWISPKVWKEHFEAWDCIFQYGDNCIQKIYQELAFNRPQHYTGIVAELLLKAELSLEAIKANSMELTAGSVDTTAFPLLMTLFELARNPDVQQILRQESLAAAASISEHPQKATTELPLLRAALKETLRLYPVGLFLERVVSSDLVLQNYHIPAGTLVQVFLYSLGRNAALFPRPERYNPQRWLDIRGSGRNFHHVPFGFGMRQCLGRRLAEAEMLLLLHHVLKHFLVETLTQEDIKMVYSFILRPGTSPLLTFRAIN
The experiment in a line: In vitro activity assay of monoclonal cells overexpressing human CYP11B2. The settings on record: G402 cells overexpressing human CYP11B2; 1 µM 11-deoxycorticosterone, 16 hours; aldosterone by LC-MS/MS. Type of data set: cell-based. How it is done:
The human renal leiomyoma G402 cell line overexpressing human CYP11B2 was selected to serve as a compound activity screening system. Table 1: Cell and reagent information
2) Compound details: The test compound was prepared as a 10 µM working concentration using DMSO. 3) Experimental procedure
Day 1: Cells were digested, and human renal leiomyoma G402 cells overexpressing human CYP11B2 were resuspended to 1×10^5 cells/mL, with 100 µL seeded into a 96-well plate.
(§1) Day 3: The cell supernatant was collected and added to 200 µL of a methanol solution containing internal standards (internal standards: 35 ng/mL ketoprofen or 7.5 ng/mL carbamazepine or 5 ng/mL diphenhydramine or 10 ng/mL tolbutamide). The mixture was vortexed and centrifuged (4000×g, 4°C, 5 minutes). Then, 100 µL of the supernatant was taken and mixed with 100 µL of pure water.
Ratio = Aldosterone peak area/Internal standard peak area [formula] Control activity% = (Ratiotestcompound/RatioDMSO) × 100% [formula]
(§2) "Ratio test compound" represents the Ratio values at different concentrations of the test compound.
(§3) "Ratio DMSO" represents the Ratio value without the addition of the test compound. • X = Log (compound concentration) • Y = Control activity%
The IC50 of the test compound was determined by fitting to a nonlinear regression equation using XLfit 5.5.0. Table 3: Results for in vitro activity assay of monoclonal cells overexpressing human CYP11B2

The next data set can be described thus: in vivo. As to conditions: cynomolgus monkey, po.
The target of a further data set is T2, human CYP11B1 (Homo sapiens, UniProt P15538).
T2 construct: expressed in transfected cells; host or cells: human renal leiomyoma G402 cells (monoclonal)
T2 sequence (P15538 25-503): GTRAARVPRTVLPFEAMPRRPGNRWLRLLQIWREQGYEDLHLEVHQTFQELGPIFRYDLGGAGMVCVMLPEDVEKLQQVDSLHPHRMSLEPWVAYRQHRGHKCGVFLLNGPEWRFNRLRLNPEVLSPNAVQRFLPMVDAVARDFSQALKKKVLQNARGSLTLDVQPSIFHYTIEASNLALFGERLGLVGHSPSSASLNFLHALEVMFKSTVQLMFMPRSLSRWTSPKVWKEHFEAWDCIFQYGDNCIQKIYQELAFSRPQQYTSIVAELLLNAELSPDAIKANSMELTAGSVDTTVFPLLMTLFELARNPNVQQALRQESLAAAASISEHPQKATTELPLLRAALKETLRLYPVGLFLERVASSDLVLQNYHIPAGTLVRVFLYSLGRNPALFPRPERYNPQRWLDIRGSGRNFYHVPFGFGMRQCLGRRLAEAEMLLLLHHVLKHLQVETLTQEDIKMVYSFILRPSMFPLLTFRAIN
The experiment in a line: In vitro activity assay of monoclonal cells overexpressing human CYP11B1. As to conditions: G402 cells overexpressing human CYP11B1; 1 µM 11-deoxycortisol, 16 hours; cortisol by LC-MS/MS. The format is cell-based. As for the experimental part:
The human renal leiomyoma G402 cell line overexpressing human CYP11B1 was selected to serve as a compound selectivity screening system.
Day 1: Cells were digested, and human renal leiomyoma G402 cells overexpressing CYP11B1 were resuspended to 1×10^5 cells/mL, with 100 µL seeded into a 96-well plate.
as §1
Ratio = Cortisol peak area/Internal standard peak area [formula] Control activity% = (Ratiotestcompound/RatioDMSO) × 100% [formula]
as §2, §3
The IC50 of the test compound was determined by fitting to a nonlinear regression equation using XLfit 5.5.0. Table 4: Results for in vitro activity assay of monoclonal cells overexpressing human CYP11B1

The term fraction unbound denotes free concentration divided by total concentration. Read a high fraction unbound as much free substance. By CLint scaled is commonly meant the capacity of the preparation to metabolise the compound, expressed as a volume cleared per time. Higher therefore signals rapid turnover. As usually defined, the efflux ratio is the permeability from basolateral to apical divided by that in the opposite direction, in the common usage. A word on the IC50: it is the concentration at which inhibition is half-maximal. By AUC(0-t) is commonly meant exposure summed from dosing to a finite time, without extrapolation to infinity. As a reminder, the Cmax is the highest concentration seen after dosing. For orientation: half-life means how long it takes for the measured level to halve. As to `CCC(=O)NC1CCCc2c(-c3cc(F)c4c(ccc(=O)n4C)c3)cncc21` (single isomer, unassigned) [Compound 018], the fraction unbound at 4 h, 2 µM in the data set “in vitro [1]” was 0.205. This compound also returned a CLint scaled at 1 µM in “in vitro [2]” of less than 8.6 mL/min/kg. Besides, in data set [3], the efflux ratio at 2.5 h, 2 µM was 1.32 and the Papp A→B at 2.5 h, 2 µM worked out at 24.6 ×10⁻⁶ cm/s. The compound also had a fraction unbound at 4 h, 2 µM in the data set “in vitro [4]” of 0.08. This compound showed a fraction unbound at 4 h, 2 µM in the data set “in vitro [5]” of 0.191. At human CYP11B2, this compound displayed a half-maximal inhibitory concentration (IC50) of 20.7 nM. In “in vivo” (1 mg/kg), this compound gave an AUC(0-t) at 24 h of 7.59 µM·h, a Cmax of 1310 nM and a half-life of 5.35 h. Also, at human CYP11B1, it took 3810 nM to reach half-maximal inhibition (IC50).
For `CCC(=O)NC1CCCc2c(-c3cc4ccc(=O)n(C)c4cc3F)cncc21` (single isomer, unassigned) [Compound 019], in “in vitro [1]”, the fraction unbound at 4 h, 2 µM was 0.248. The same compound yielded a CLint scaled at 1 µM in the data set “in vitro [2]” of less than 8.6 mL/min/kg. In addition, in data set [3], the efflux ratio at 2.5 h, 2 µM stood at 1.55 and the Papp A→B at 2.5 h, 2 µM was 21.5 ×10⁻⁶ cm/s. In the data set “in vitro [4]”, this compound had a fraction unbound at 4 h, 2 µM of 0.129. In addition, in “in vitro [5]”, the fraction unbound at 4 h, 2 µM was 0.238. The compound further returned an IC50 at human CYP11B2 of 17.3 nM. Also, in “in vivo” (3 mg/kg), the AUC(0-t) at 24 h was 23.9 µM·h, the peak level (Cmax) was 3800 nM, the bioavailability amounted to 113% and the half-life is 4.65 h. The same compound showed an IC50 on human CYP11B1 of 1680 nM.
